# In patent US5556744A, “Methods and compositions for diagnosing and treating certain HIV infected patients” (The Trustees of the University of Pennsylvania, priority 1994, dated 1996):
# Legend:
# [1] = test system: maternal HIV+ sera (antibodies); assay: RIA / ELISA binding of maternal HIV+ sera to gp120 and gp41 peptides (Example 3); parameters: species or system human
# How it was run: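 Maternal sera, diluted 1:50 and 1:500, were bound overnight at 4°C to peptides immobilized at 10 μg/ml (pH 9.6 carbonate) and blocked with 1% BSA. Read-out was ¹²⁵I-labelled anti-human IgG counts or HRP-TMB OD450. Signal with peptide minus without was expressed relative to seronegative serum.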
# [2] = test system: HIV-1; conditions: antisera (animals); cited from earlier work
# [3] = test system: maternal sera (antibodies); assay: ELISA peptide-binding of maternal sera (Example 6); parameters: species or system human
# How it was run: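 HIV-1 envelope peptides averaging 16 amino acids, covering external and transmembrane glycoprotein, were probed by ELISA. Third-trimester maternal sera, classed as transmitter or non-transmitter by child diagnosis, were each run on at least 40 peptides. Values give percent of sera binding a peptide.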
# [4] = test system: maternal serum samples (antibodies); assay: ELISA peptide-binding of maternal sera, expanded peptide collection (Example 5); parameters: species or system human; conditions: Example 5
# How it was run: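 Maternal sera diluted 1:50 or 1:500 in 1% BSA/PBS/0.05% Tween 20 were tested by ELISA on 10 μg/mL HIV IIIB gp120/gp41 peptides (~18 residues, ≥85% pure). Binding scored positive at experimental/control OD450nm ratio ≥2; HIV-seronegative human sera served as controls.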
sequence,measurement,setting,value
CTKAKRRVVQREKA [Peptide 497],Number of maternal sera binding to peptide,[1]; 20 maternal sera,Sixteen
same,"Percentage of sera samples demonstrating binding to peptide, non-transmitter","[1]; Non-transmitter group, n = 13",71%
same,Binding of maternal HIV+ serum to peptide (sera/NHS ratio),"[1]; Serum No. 1, Non-Transmission Group","- (specific OD450 or cpm of sera sample binding to peptide divided by the specific OD450 or cpm of NHS sample binding to peptide, which value is less than 2)"
same,Binding of maternal HIV+ serum to peptide (sera/NHS ratio),"[1]; Serum No. 2, Non-Transmission Group",++ (which value is greater than 3)
same,Binding of maternal HIV+ serum to peptide (sera/NHS ratio),"[1]; Serum No. 3, Non-Transmission Group",++ (which value is greater than 3)
same,Binding of maternal HIV+ serum to peptide (sera/NHS ratio),"[1]; Serum No. 4, Transmission Group",++ (which value is greater than 3)
same,Binding of maternal HIV+ serum to peptide (sera/NHS ratio),"[1]; Serum No. 5, Transmission Group",+ (which value is between 2 to 3)
same,Binding of maternal HIV+ serum to peptide (sera/NHS ratio),"[1]; Serum No. 6, Non-Transmission Group",+ (which value is between 2 to 3)
same,Binding of maternal HIV+ serum to peptide (sera/NHS ratio),"[1]; Serum No. 7, Non-Transmission Group","- (specific OD450 or cpm of sera sample binding to peptide divided by the specific OD450 or cpm of NHS sample binding to peptide, which value is less than 2)"
same,Binding of maternal HIV+ serum to peptide (sera/NHS ratio),"[1]; Serum No. 8, Non-Transmission Group",++ (which value is greater than 3)
same,Binding of maternal HIV+ serum to peptide (sera/NHS ratio),"[1]; Serum No. 9, Non-Transmission Group",++ (which value is greater than 3)
same,Binding of maternal HIV+ serum to peptide (sera/NHS ratio),"[1]; Serum No. 10, Transmission Group",+ (which value is between 2 to 3)
same,Binding of maternal HIV+ serum to peptide (sera/NHS ratio),"[1]; Serum No. 11, Non-Transmission Group",++ (which value is greater than 3)
same,Binding of maternal HIV+ serum to peptide (sera/NHS ratio),"[1]; Serum No. 12, Non-Transmission Group","- (specific OD450 or cpm of sera sample binding to peptide divided by the specific OD450 or cpm of NHS sample binding to peptide, which value is less than 2)"
same,Binding of maternal HIV+ serum to peptide (sera/NHS ratio),"[1]; Serum No. 13, Transmission Group","- (specific OD450 or cpm of sera sample binding to peptide divided by the specific OD450 or cpm of NHS sample binding to peptide, which value is less than 2)"
same,Binding of maternal HIV+ serum to peptide (sera/NHS ratio),"[1]; Serum No. 14, Transmission Group","- (specific OD450 or cpm of sera sample binding to peptide divided by the specific OD450 or cpm of NHS sample binding to peptide, which value is less than 2)"
same,Binding of maternal HIV+ serum to peptide (sera/NHS ratio),"[1]; Serum No. 15, Transmission Group",++ (which value is greater than 3)
same,Binding of maternal HIV+ serum to peptide (sera/NHS ratio),"[1]; Serum No. 16, Non-Transmission Group",++ (which value is greater than 3)
same,Binding of maternal HIV+ serum to peptide (sera/NHS ratio),"[1]; Serum No. 17, Non-Transmission Group",++ (which value is greater than 3)
same,Binding of maternal HIV+ serum to peptide (sera/NHS ratio),"[1]; Serum No. 18, Non-Transmission Group",+ (which value is between 2 to 3)
same,Binding of maternal HIV+ serum to peptide (sera/NHS ratio),"[1]; Serum No. 19, Transmission Group",+ (which value is between 2 to 3)
same,Binding of maternal HIV+ serum to peptide (sera/NHS ratio),"[1]; Serum No. 20, Non-Transmission Group",+ (which value is between 2 to 3)
same,"Percentage of sera samples demonstrating binding to peptide, transmitter","[1]; Transmitter / transmission group, n = 7",Seventy-seven
same,Percent of the maternal serum samples that bound to the peptide,[1]; all 20 samples,80%
same,Neutralizing activity of antisera generated to the peptide,[2],do not demonstrate neutralizing activity
same,Number of Non-Transmitters which bound to peptide,"[3]; Non-Transmitters, N = 12",0
same,Percent of Non-Transmitters which bound to peptide,"[3]; Non-Transmitters, N = 12",0%
same,Number of Transmitters which bound to peptide,"[3]; Transmitters, N = 4",0
same,Percent of Transmitters which bound to peptide,"[3]; Transmitters, N = 4",0%
same,Binding / reactivity of maternal sera to peptide (in words),[4],High reactivity but no difference between the two groups
